Experimental findings from ChEMBL document CHEMBL5223153, “Elucidation of protective effects of oxime derivatives against cisplatin-induced cytotoxicity in LLC-PK1 kidney cells” (2023) are described below.

In test [1] the test system is LLC-PK1. As to the kind of experiment: Nephroprotective activity against cisplatin induced cytotoxicity in pig LLC-PK1 cells assessed as decrease in phosphorylated ERK level at 125 uM incubated for 24 hrs by Western blot analysis. The format is functional, cell-based. To be noted: Sus scrofa.
Test [2] deals with LLC-PK1. As to the kind of experiment: Nephroprotective activity against cisplatin induced cytotoxicity in pig LLC-PK1 cells assessed as decrease in cleaved caspase-3 level at 125 uM incubated for 24 hrs by Western blot analysis. The class given is functional, cell-based. To be noted: Sus scrofa. For orientation: A western blot detects proteins with antibodies after separation by electrophoresis.

For test [3], the system named is LLC-PK1. Nature of the test: Nephroprotective activity against cisplatin induced cytotoxicity in pig LLC-PK1 cells assessed as increase in cell viability at 125 uM incubated for 24 hrs by MTT assay. The format is functional, Sus scrofa. Background: Tetrazolium dyes change colour on reduction, which living cells bring about.
The subject of test [4] is LLC-PK1. As to the kind of experiment: Nephroprotective activity against cisplatin induced cytotoxicity in pig LLC-PK1 cells assessed as increase in cell viability at 50 uM incubated for 24 hrs by MTT assay. The class given is functional, Sus scrofa.
Test [5] concerns LLC-PK1. As to the kind of experiment: Nephroprotective activity against cisplatin induced cytotoxicity in pig LLC-PK1 cells assessed as decrease in phosphorylated JNK level at 125 uM incubated for 24 hrs by Western blot analysis. The format is functional, cell-based. To be noted: Sus scrofa.
Test [6] concerns LLC-PK1. Nature of the test: Nephroprotective activity against cisplatin induced cytotoxicity in pig LLC-PK1 cells assessed as increase in cell viability at 25 uM incubated for 24 hrs by MTT assay. The class given is functional, Sus scrofa.
The subject of test [7] is LLC-PK1. As to the kind of experiment: Nephroprotective activity against cisplatin induced apoptosis in pig LLC-PK1 cells assessed as decrease in ratio of apoptotic cells at 125 uM incubated for 24 hrs by annexin V staining based image cytometric analysis. The class given is functional, cell-based. To be noted: Sus scrofa.
Test [8] has as its system LLC-PK1. As to the kind of experiment: Nephroprotective activity against cisplatin induced cytotoxicity in pig LLC-PK1 cells assessed as increase in cell viability at 250 uM incubated for 24 hrs by MTT assay. The format is functional, Sus scrofa.

Activity calls are given as the source filed them. The rule behind the calls is not given here.

As to `COc1cc(Br)c(/C=C/C(=N/O)c2ccc(Br)cc2)cc1OC`, the result in the test with LLC-PK1 [1], in the test with LLC-PK1 [2], in the test with LLC-PK1 [5] and in the test with LLC-PK1 [7] was Active. The Activity in the test on LLC-PK1 [3] is 83.79%; with LLC-PK1 [4], 83.86%; in the test on LLC-PK1 [6] it was 66.83%; in the test with LLC-PK1 [8] it was 94.78%.

Turning to `COc1cc(Br)c(/C=C/C(=N/O)c2ccc(Cl)cc2)cc1OC`, the outcome in the test with LLC-PK1 [1], in the test on LLC-PK1 [2], in the test with LLC-PK1 [5] and in the test on LLC-PK1 [7] was Active. Besides, the values for the Activity with LLC-PK1 [3], in the test on LLC-PK1 [4] and in the test with LLC-PK1 [8] were 84.41%, 82.22% and 94.51%, respectively.
